Source: PMC10388327, “Dual Piperidine-Based Histamine H3 and Sigma-1 Receptor Ligands in the Treatment of Nociceptive and Neuropathic Pain” (Journal of Medicinal Chemistry, 2023)
Where a name gives a salt, the structure may show the parent alone.

Columns and labels:
[1] = target: T1, sigma-2 receptor (σ2R) (Rattus norvegicus, UniProt Q5U3Y7); assay: σ2R radioligand binding ([3H]DTG); details: read-out: σ2R Ki [nM] x̄ [CI 95%]; mean [CI 95%]
T1 construct: The thawed membrane preparation of rat liver was incubated; from tissue; host or cells: Sprague-Dawley rat liver membranes
T1 sequence (Q5U3Y7 1-176): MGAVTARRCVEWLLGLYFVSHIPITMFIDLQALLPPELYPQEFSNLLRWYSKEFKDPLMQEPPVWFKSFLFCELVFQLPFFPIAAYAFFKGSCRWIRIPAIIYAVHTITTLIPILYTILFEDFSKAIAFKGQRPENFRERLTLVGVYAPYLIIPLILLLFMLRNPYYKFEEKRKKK

[2] = tested on: CCI-exposed mice; assay: CCI of the sciatic nerve, cold plate test; type: in vivo, male albino Swiss CD-1 mice
Procedure: (§1) Behavioral assessment of 12 was performed 14 days after the sciatic nerve injury. Mice were randomly assigned to four treatment groups: vehicle-treated (i.p.) and 12-treated (5, 10, and 15 mg/kg, i.p.). Baseline measurements (basal) for all tests were performed before compound injections, and the results are presented as percentages of the maximal possible effect (% MPE). We observed a significant effect of the tested compound in the von Frey test at all tested time points (30 min: F(3, 26) = 12.38, p < 0,0001; 90 min: F(3, 26) = 12.65, p < 0.0001; 180 min: F(3, 26) = 6.464, p = 0.0020). […] We also observed a significant effect of treatment on the contralateral paw 90 min after injection (F(3, 26) = 5.741, p = 0.0037).
The model of chronic constriction injury (CCI) to the sciatic nerve was established according to Bennett and Xie.[94] The surgical method was performed under isoflurate anesthesia (2% isoflurane in 100% oxygen with a flow of 1.5 L/min).[95] Below the right hipbone, a small incision was performed, and three ligatures (4/0 silk) around the sciatic nerve were made (with 1 mm spacing) until a brief twitch in the respective hind limb was observed. All mice that underwent the CCI procedure developed hypersensitivity to mechanical and thermal stimuli. Behavioral tests were performed at day 14 after injury. Compound 12 was dissolved in 10% DMSO/10% (2-hydroxypropyl)-β-cyclodextrin/water and administered i.p. at doses 5, 10, and 15 mg/kg (injection volume 10 mL/kg of body weight). The control group received the vehicle (10% DMSO/10% (2-hydroxypropyl)-β-cyclodextrin/water).
Behavioral experiments were performed between 8:00 a.m. and 2:00 p.m. Across the experiments, we compared vehicle-treated mice with 12-treated animals. […]
Sensitivity to noxious thermal stimuli was assessed with the cold plate test (Cold/Hot Plate Analgesia Meter, Columbus Instruments) as previously described.[95] […] The mice were placed on the cold plate, and the time until lifting of the injured paw was recorded.

[3] = tested on: mice; assay: spontaneous locomotor activity; type: in vivo
Procedure: (§2) The high sedative activity of analgesics is considered an undesirable property, which may lead to an incorrect or ambiguous interpretation of the in vivo results. Moreover, it may limit the potential clinical application of new drug candidates.
(§3) This test was carried out according to the procedure described elsewhere.[84] The animals were injected (i.p.) with 12 at doses of 5, 15, and 30 mg/kg and placed in the activity cages individually (30 min before the experiment). The number of light-beam crossings was counted in each group during the next 30 min in 10 min intervals.

[4] = spontaneous locomotor activity; type: in vivo, mice; details: mouse, in vivo, ip; estimated; read-out: ED50, decrease of spontaneous locomotor activity
Procedure: as §2, §3

[5] = tested on: mice; assay: capsaicin-induced nociception; type: in vivo
Procedure: The procedure used was similar to that described previously.[88],[89] The pain reaction was induced by the injection of 20 μL of capsaicin solution (1.6 μg/paw made in PBS) under the skin of the dorsal surface of the mice right hindpaw. The animals were observed individually in an observation chamber for 5 min following capsaicin injection. The amount of time spent licking the injected paw was recorded by means of the stopwatch and was considered as indicative of pain. The animals were pretreated with the vehicle (10 mL/kg, negative control) and investigated compound (10, 15, and 30 mg/kg).

[6] = target: T2, human histamine H4 receptor (hH4R) (Homo sapiens, UniProt Q9H3N8); assay: hH4R radioligand binding ([3H]UR-PI294); details: read-out: hH4R (Ki [nM] x̅ [CI 95%]); HEK293T cells; n = 3, triplicate
T2 construct: SP (signal peptide) (N); FLAG (N); expressed in transfected cells
T2 sequence (Q9H3N8 whole entry): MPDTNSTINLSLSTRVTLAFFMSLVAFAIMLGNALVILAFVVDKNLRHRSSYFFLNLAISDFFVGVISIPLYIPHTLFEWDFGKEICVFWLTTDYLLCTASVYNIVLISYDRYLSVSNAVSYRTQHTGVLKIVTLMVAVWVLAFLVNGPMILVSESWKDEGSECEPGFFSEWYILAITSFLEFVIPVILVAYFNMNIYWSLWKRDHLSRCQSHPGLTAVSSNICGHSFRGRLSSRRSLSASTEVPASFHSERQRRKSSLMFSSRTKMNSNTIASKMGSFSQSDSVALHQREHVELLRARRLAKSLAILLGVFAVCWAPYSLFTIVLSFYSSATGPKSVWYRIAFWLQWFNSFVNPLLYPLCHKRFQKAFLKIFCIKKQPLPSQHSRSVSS
Procedure: To check the selectivity profile of our lead structures, radioligand binding studies at other histamine receptor subtypes were carried out. […] Obtained results clearly indicate the high selectivity of the tested derivatives toward human H3R (Table 3).
Compounds (as oxalate salts) were tested in H3R in vitro binding studies using the methods described previously.[21]−[23] […] Radioligand binding experiments at the H1R, H2R, and H4R were performed as previously described in Rosier et al.[65] and Bartole et al.[66] […] Data represent mean values ± CI from three independent experiments, each performed in triplicate. The normalized competition binding curves were then fitted with a four-parameter logistic fit yielding IC50 values using the Prism 8.4.3 software (GraphPad, San Diego, CA). The Ki values were estimated from the Cheng–Prusoff equation.[69]

[7] = parallel artificial membrane permeability assay (PAMPA); type: in vitro ADME; details: 100 μM in PBS pH 7.4, RT, read-out: Pe (permeability coefficient)
[8] = tested on: sigma-1 receptor (σ1R); assay: σ1R radioligand binding ([3H](+)-pentazocine); design: species or system guinea pig; details: ratio of σ2R Ki to σ1R Ki
[9] = target: T3, sigma-1 receptor (σ1R) (Cavia porcellus, UniProt Q60492); assay: σ1R radioligand binding ([3H](+)-pentazocine); design: species or system guinea pig; details: read-out: σ1R Ki [nM] x̄ [CI 95%]; mean [CI 95%]
T3 construct: The thawed membrane preparation of the guinea pig brain cortex was incubated; from tissue; host or cells: male Dunkin-Hartley guinea pig brain cortex membranes
T3 sequence (Q60492 whole entry): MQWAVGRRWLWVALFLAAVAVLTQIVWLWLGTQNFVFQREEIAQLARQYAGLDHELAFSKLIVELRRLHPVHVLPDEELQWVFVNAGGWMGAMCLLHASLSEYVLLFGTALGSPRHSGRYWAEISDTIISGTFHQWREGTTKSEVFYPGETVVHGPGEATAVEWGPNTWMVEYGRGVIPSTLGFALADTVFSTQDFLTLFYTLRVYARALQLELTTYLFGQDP

[10] = tested on: CCI-exposed mice; assay: CCI of the sciatic nerve, tail flick test; type: in vivo, male albino Swiss CD-1 mice
Procedure: as §1
The model of chronic constriction injury (CCI) to the sciatic nerve was established according to Bennett and Xie.[94] The surgical method was performed under isoflurate anesthesia (2% isoflurane in 100% oxygen with a flow of 1.5 L/min).[95] […]
Tail flick latency was measured on the dorsal part of the tail at two-thirds of its length by applying a focused beam of light (thermal stimulus). The time interval between onset of the thermal stimulus and withdrawal of the tail from the beam was recorded; the cutoff latency was 9 s to prevent tissue damage.

SMILES: N#Cc1ccc(-c2ccc(OCCCN3CCC(c4ccncc4)CC3)cc2)cc1 [Compound 12, 4′-(3-(4-(Pyridin-4-yl)piperidin-1-yl)propoxy)-[1,1′-biphenyl]-4-carbonitrile Oxalate]
- Ki [1]: 10 nM
- analgesic effect, cold plate test ([2]; 35 min after i.p. injection, 5, 10, 15 mg/kg): analgesic effects of 12 single injection were observed at 35 min for all tested doses
- analgesic effect, cold plate test ([2]; 95 min after i.p. injection, 5, 10, 15 mg/kg): antihyperalgesic effect was also observed 95 min after injection
- analgesic effect, cold plate test ([2]; 185 min after i.p. injection): significant only for doses 5 (p = 0.0482) and 10 mg/kg (p < 0.0001)
- influence on spontaneous locomotor activity (sedative effect) ([3]; 15 mg/kg i.p.): decreased spontaneous locomotor activity, but the effect was not statistically significant
- influence on spontaneous locomotor activity (sedative effect) ([3]; 30 mg/kg i.p.): significantly decreased locomotor activity
- ED50 at 30 min [4]: 22 mg/kg
- effect on nociceptive response in capsaicin test ([5]; 10, 15 and 30 mg/kg): significantly decreased the paw licking or biting behavior
- ED50 ([5]; Mus musculus, 5 min, 5 min after intraplantar capsaicin, read-out: ED50, capsaicin test): 10.3 mg/kg
- Ki [6]: > 10000 nM
- Papp at 5 h, 100 µM [7]: 12 ×10⁻⁶ cm/s
- σ2/σ1 ratio [8]: 2.2
- Ki [9]: 4.5 nM
- analgesic effect, tail flick test ([10]; 100 and 190 min after i.p. injection): only the 10 mg/kg dose had significant analgesic effects
- analgesic effect, tail flick test ([10]; 40 min after i.p. injection): significant analgesic action of 12 at 40 min (for doses 5 (p = 0.021) and 10 mg/kg (p < 0.0001))
